Measured values: publication PMC9579733 (Journal of Orthopaedic Translation, 2022)

Experiments:
[1] = tested on: osteoblast-specific factor 2 (OSF-2); settings: ref [21]; cited from earlier work
human and mouse OBs = settings: peptide screened by phage technology; ref [21]; cited from earlier work
MC3T3-E1 cells = experiment: ALP activity analysis of MC3T3-E1 cells; format: cell-based, mouse; settings: osteogenic differentiation medium, GPA 50 μM or SGPA 2.5-10 μM; 14 days (method) / 7 days (Fig. 3 legend)
FXR-RUNX2 signalling = FXR-RUNX2 signalling in femur of OVX mice; format: in vivo, C57BL/6J mice; settings: 20 mg/kg intravenously daily for 4 weeks, qRT-PCR, n = 6
[2] = ref [9],[10]; cited from earlier work
[3] = tested on: farnesoid X receptor (FXR); settings: ref [11],[12]; cited from earlier work

Row | Compound | affinity with osteoblast-specific factor 2 (OSF-2) [1] | targeting of OBs (human and mouse OBs) | ALP activity (MC3T3-E1 cells) | mRNA expression of Bsep (a target gene for FXR) in femur (FXR-RUNX2 signalling) | mRNA expression of Runx2 in femur (FXR-RUNX2 signalling) | tissue enrichment of GPA [2] | activation of farnesoid X receptor (FXR) [3]
1 | Ser-Asp-Ser-Ser-Asp [SDSSD] | high affinity | can specifically target both human and mouse OBs |  |  |  |  | 
2 | O=C(O)C1=CO[C@@H](O[C@@H]2O[C@H](CO)[C@@H](O)[C@H](O)[C@H]2O)[C@@H]2C(CO)=CC[C@H]12 [GPA, Geniposidic acid] |  |  | increased | significantly increased | significantly increased | enriched in liver and kidney | activated
